test system: Pseudomonas sp. strain MHP41; assay: Antibiotic sensitivity of strain MHP41; type: cell-based

| SMILES | sensitivity or resistance of the strain to the antibiotic |
| --- | --- |
| CC1(C)S[C@@H]2[C@H](NC(=O)[C@H](N)c3ccccc3)C(=O)N2[C@H]1C(=O)O [ampicillin] | natural resistance |
| CC1(C)S[C@@H]2[C@H](NC(=O)C(C(=O)O)c3ccccc3)C(=O)N2[C@H]1C(=O)O (stereo partly drawn) [carbamicillin] | sensitive |
| [H]/N=C(/N)N[C@H]1[C@H](O)[C@@H](O)[C@H](O[C@@H]2O[C@@H](C)[C@](O)(C=O)[C@H]2O[C@@H]2O[C@@H](CO)[C@H](O)[C@@H](O)[C@@H]2NC)[C@@H](N/C(N)=N\[H])[C@@H]1O [streptomycin] | sensitive |
